In the supplement of paper PMC10307832:

Experiments:
Assay in all cases: relative viability (nuclei count vs DMSO), 5 days (fraction); higher = more cells survive
Irinotecan + Dasatinib = compound: CCc1c2c(nc3ccc(OC(=O)N4CCC(N5CCCCC5)CC4)cc13)-c1cc3c(c(=O)n1C2)COC(=O)[C@]3(O)CC [Irinotecan] + Cc1nc(Nc2ncc(C(=O)Nc3c(C)cccc3Cl)s2)cc(N2CCN(CCO)CC2)n1 [Dasatinib] (partner 0.075 µM)
Method in brief: (§1)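 Cells from lung cancer lines were seeded into 1536-well plates and, one day later, dosed by pin tool. Treatments were either a single drug or a fixed dose of an anchor drug with five library-drug doses (not always all listed) in √10 steps. After 5 days, nuclei were stained in a one-step fixation (final 0.05% Triton X-100, 1% formaldehyde, 1 ug/ml Hoechst) and counted on 4× images, and relative viability is the treated-to-vehicle nuclei ratio, as the median of duplicate plates.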

Irinotecan + Bortezomib = compound: CCc1c2c(nc3ccc(OC(=O)N4CCC(N5CCCCC5)CC4)cc13)-c1cc3c(c(=O)n1C2)COC(=O)[C@]3(O)CC [Irinotecan] + CC(C)C[C@H](NC(=O)[C@H](Cc1ccccc1)NC(=O)c1cnccn1)B(O)O [Bortezomib] (partner 0.002 µM)
Method in brief: as §1

RU-SKI 43 + Bortezomib = compound: CC[C@@H](C)CNCC(=O)N1CCC2=C([C@@H]1COC3=CC=CC(=C3)C)C=CS2 [RU-SKI 43] + CC(C)C[C@H](NC(=O)[C@H](Cc1ccccc1)NC(=O)c1cnccn1)B(O)O [Bortezomib] (partner 0.002 µM)
Method in brief: as §1

Irinotecan + Crizotinib = compound: CCc1c2c(nc3ccc(OC(=O)N4CCC(N5CCCCC5)CC4)cc13)-c1cc3c(c(=O)n1C2)COC(=O)[C@]3(O)CC [Irinotecan] + C[C@@H](Oc1cc(-c2cnn(C3CCNCC3)c2)cnc1N)c1c(Cl)ccc(F)c1Cl [Crizotinib] (partner 1 µM)
Method in brief: as §1

Row | Cell Line | relative viability (Irinotecan + Dasatinib; first compound 0.6325 µM) | relative viability (Irinotecan + Dasatinib; first compound 2 µM) | relative viability (Irinotecan + Dasatinib; first compound 6.325 µM) | relative viability (Irinotecan + Dasatinib; first compound 20 µM) | relative viability (Irinotecan + Bortezomib; first compound 0.6325 µM) | relative viability (Irinotecan + Bortezomib; first compound 2 µM) | relative viability (Irinotecan + Bortezomib; first compound 6.325 µM) | relative viability (Irinotecan + Bortezomib; first compound 20 µM) | relative viability (RU-SKI 43 + Bortezomib; first compound 0.1 µM) | relative viability (RU-SKI 43 + Bortezomib; first compound 0.3162 µM) | relative viability (RU-SKI 43 + Bortezomib; first compound 1 µM) | relative viability (RU-SKI 43 + Bortezomib; first compound 3.162 µM) | relative viability (RU-SKI 43 + Bortezomib; first compound 10 µM) | relative viability (Irinotecan + Crizotinib; first compound 0.6325 µM) | relative viability (Irinotecan + Crizotinib; first compound 2 µM) | relative viability (Irinotecan + Crizotinib; first compound 6.325 µM) | relative viability (Irinotecan + Crizotinib; first compound 20 µM)
1 | NCI-H838 | 0.213 | 0.259 | 0.249 | 0.247 | 0.986 | 0.588 | 0.583 | 0.149 | 0.718 | 0.955 | 0.912 | 0.748 | 0.992 | 0.769 | 0.679 | 0.365 | 0.276
2 | NCI-H1755 | 0.373 | 0.45 | 0.308 | 0.271 | 0.9 | 0.935 | 0.355 | 0.327 | 0.978 | 1.14 | 1.04 | 0.941 | 0.986 | 0.712 | 0.497 | 0.332 | 0.451
3 | NCI-H1666 | 0.864 | 0.657 | 0.486 | 0.348 | 0.608 | 0.419 | 0.414 | 0.214 | 0.704 | 0.84 | 0.702 | 0.719 | 0.534 | 0.617 | 0.464 | 0.47 | 0.357
4 | NCI-H2085 | 0.221 | 0.23 | 0.266 | 0.273 | 0.847 | 1.01 | 0.535 | 0.494 | 1.03 | 1.08 | 1.1 | 0.995 | 0.988 | 0.845 | 0.622 | 0.511 | 0.537
5 | COR-L23 | 0.271 | 0.272 | 0.239 | 0.0978 | 0.506 | 0.396 | 0.211 | 0.113 | 1.18 | 0.714 | 1.12 | 1.14 | 1.03 | 0.293 | 0.289 | 0.204 | 0.1
6 | NCI-H647 | 0.123 | 0.187 | 0.131 | 0.0807 | 0.76 | 0.462 | 0.227 | 0.103 | 0.956 | 0.841 | 1.08 | 1.25 | 1.14 | 0.852 | 0.365 | 0.227 | 0.198
7 | LCLC-97TM1 | 0.711 | 0.589 | 0.121 | 0.132 | 0.41 | 0.387 | 0.148 | 0.176 | 0.852 | 0.827 | 1.79 | 0.684 | 0.645 | 0.107 | 0.208 | 0.185 | 0.239
8 | HOP-62 | 0.549 | 0.589 | 0.276 | 0.201 | 0.642 | 0.2 | 0.112 | 0.179 | 0.728 | 0.561 | 1.01 | 0.731 | 0.765 | 0.211 | 0.108 | 0.136 | 0.159
9 | NCI-H520 | 0.192 | 0.214 | 0.202 | 0.161 | 0.446 | 0.477 | 0.252 | 0.138 | 0.572 | 0.798 | 0.721 | 0.667 | 0.597 | 0.639 | 0.524 | 0.279 | 0.225
10 | NCI-H1734 |  | 0.385 | 0.218 | 0.155 | 0.797 | 0.674 | 0.207 | 0.174 | 0.971 | 1.08 | 0.917 | 0.824 | 0.789 | 0.618 | 0.336 | 0.226 | 0.177
11 | NCI-H1650 |  | 0.401 | 0.304 | 0.177 | 0.188 | 0.198 | 0.244 | 0.133 | 0.204 | 0.208 | 0.222 | 0.209 | 0.192 | 0.918 | 1.23 | 0.391 | 0.179
12 | NCI-H1563 | 0.392 | 0.458 | 0.44 | 0.514 | 0.598 | 0.891 | 0.871 | 0.477 | 0.882 | 0.828 | 0.888 | 0.797 | 0.797 | 0.865 | 0.882 | 0.865 | 0.344
13 | NCI-H1975 | 0.28 | 0.469 | 0.305 | 0.155 | 0.294 | 0.31 | 0.278 | 0.129 | 0.441 | 0.421 | 0.464 | 0.4 | 0.34 | 0.914 | 1 | 0.401 | 0.329
14 | NCI-H1437 | 0.229 | 0.534 | 0.254 | 0.111 | 0.399 | 0.355 | 0.285 | 0.171 | 0.581 | 0.594 | 0.637 | 0.629 | 0.526 | 0.962 | 0.664 | 0.323 | 0.24
15 | A-427 |  | 0.535 | 0.211 | 0.16 |  | 0.427 | 0.198 | 0.187 | 1.05 | 0.95 | 1.05 |  | 0.896 |  | 0.243 | 0.179 | 0.214
16 | NCI-H2405 |  | 0.218 | 0.198 | 0.18 | 0.573 | 0.931 | 0.662 | 0.299 | 0.957 | 1.03 | 1.02 | 0.936 | 0.773 | 0.788 | 0.779 | 0.355 | 0.274
